Test results taken from patent US12447156B2, “Treating progressive familial intrahepatic cholestasis (PFIC) with IBAT inhibitors” (ALBIREO AB, priority 2020, dated 2025).
Marks after values point to notes of the source that are not given here.

System: patients with PFIC3 or PFIC6
Test: PEDFIC 2: efficacy and safety in patients with PFIC3 or PFIC6
Type: in vivo, human
Conditions: for Common TEAEs by preferred term: ALT increased / Common TEAEs by preferred term: INR increased / Common TEAEs by preferred term: Total bilirubin increased / Common TEAEs by preferred term: Vitamin D deficiency / Mild TEAEs / Moderate TEAEs / Serious TEAEs / Severe TEAEs / TEAEs / TEAEs leading to discontinuation: 120 μg/kg once daily
Source text: In PEDFIC 2, eligible patients are enrolled into one of 2 cohorts, based on the following criteria: Cohort 1 includes pediatric patients with PFIC1 or PFIC2 from PEDFIC 1 and cohort 2 includes patients of any age with any PFIC type; these are newly enrolled patients. In both cohorts, eligible patients are those with genetically confirmed PFIC, elevated serum bile acids (≥100 μmol/L), and significant pruritus (i.e., itching or scratching score of ≥2 per patient/caregiver report using the PRUCISION instrument). PEDFIC 2 includes a 72-week treatment period in which all patients receive oral, once-daily odevixibat 120 μg/kg.
Change from baseline in serum bile acids, pruritus, hepatic biochemical parameters, growth, and sleep; serum bile acid response (i.e., serum bile acids reduced ≥70% or levels ≤70 μmol/L); proportion of positive pruritus assessments (PPAs) at the patient level (i.e., pruritus score ≤1 or a ≥1-point drop from baseline); and treatment-emergent adverse events (TEAEs). Patient pruritus and sleep were evaluated twice daily by caregivers using the validated PRUCISION scale; pruritus responses range from 0 to 4, with higher scores indicating worse symptom.

[1] = 6 patients with PFIC3 or PFIC6, 120 μg/kg
[2] = patient with PFIC6, N=1, oral once-daily 120 μg/kg

CCCCC1(CCCC)CN(c2ccccc2)c2cc(SC)c(OCC(=O)N[C@@H](C(=O)N[C@@H](CC)C(=O)O)c3ccc(O)cc3)cc2S(=O)(=O)N1 [Odevixibat, 1,1-dioxo-3,3-dibutyl-5-phenyl-7-methylthio-8-(N-{(R)-α-[N-((S)-1-carboxypropyl)carbamoyl]-4-hydroxybenzyl}carbamoylmethoxy)-2,3,4,5-tetrahydro-1,2,5-benzothiadiazepine]
patients who met criteria for serum bile acid response at the last assessment (2 with PFIC3 and 1 with PFIC6, of 6 patients): Three
reductions in pruritus score from baseline to last assessment [1]: all but 1 patient (PFIC3) had reductions in pruritus score
reductions in serum bile acids from baseline to last assessment [1]: all patients with PFIC3 or PFIC6 had reductions in serum bile acids
Common TEAEs by preferred term: ALT increased (Patient 1 (PFIC3)): 0
Common TEAEs by preferred term: INR increased (Patient 1 (PFIC3)): 0
Common TEAEs by preferred term: Total bilirubin increased (Patient 1 (PFIC3)): 0
Common TEAEs by preferred term: Vitamin D deficiency (Patient 1 (PFIC3)): 0
Mild TEAEs (Patient 1 (PFIC3)): 0
Moderate TEAEs (Patient 1 (PFIC3)): 0
Serious TEAEs (Patient 1 (PFIC3)): 0
Severe TEAEs (Patient 1 (PFIC3)): 0
TEAEs (Patient 1 (PFIC3)): 0
TEAEs leading to discontinuation (Patient 1 (PFIC3)): 0
Common TEAEs by preferred term: ALT increased (Patient 2 (PFIC3)): 0
Common TEAEs by preferred term: INR increased (Patient 2 (PFIC3)): 1
Common TEAEs by preferred term: Total bilirubin increased (Patient 2 (PFIC3)): 1
Common TEAEs by preferred term: Vitamin D deficiency (Patient 2 (PFIC3)): 0
Mild TEAEs (Patient 2 (PFIC3)): 1
Moderate TEAEs (Patient 2 (PFIC3)): 2
Serious TEAEs (Patient 2 (PFIC3)): 0
Severe TEAEs (Patient 2 (PFIC3)): 0
TEAEs (Patient 2 (PFIC3)): 3
TEAEs leading to discontinuation (Patient 2 (PFIC3)): 0
Common TEAEs by preferred term: ALT increased (Patient 3 (PFIC3)): 1
Common TEAEs by preferred term: INR increased (Patient 3 (PFIC3)): 1
Common TEAEs by preferred term: Total bilirubin increased (Patient 3 (PFIC3)): 2
Common TEAEs by preferred term: Vitamin D deficiency (Patient 3 (PFIC3)): 0
Mild TEAEs (Patient 3 (PFIC3)): 0
Moderate TEAEs (Patient 3 (PFIC3)): 4
Serious TEAEs (Patient 3 (PFIC3)): 0
Severe TEAEs (Patient 3 (PFIC3)): 1
TEAEs (Patient 3 (PFIC3)): 5
TEAEs leading to discontinuation (Patient 3 (PFIC3)): 0
Common TEAEs by preferred term: ALT increased (Patient 4 (PFIC3)): 1
Common TEAEs by preferred term: INR increased (Patient 4 (PFIC3)): 0
Common TEAEs by preferred term: Total bilirubin increased (Patient 4 (PFIC3)): 0
Common TEAEs by preferred term: Vitamin D deficiency (Patient 4 (PFIC3)): 1
Mild TEAEs (Patient 4 (PFIC3)): 2
Moderate TEAEs (Patient 4 (PFIC3)): 0
Serious TEAEs (Patient 4 (PFIC3)): 0
Severe TEAEs (Patient 4 (PFIC3)): 3
TEAEs (Patient 4 (PFIC3)): 5
TEAEs leading to discontinuation (Patient 4 (PFIC3)): 0
Common TEAEs by preferred term: ALT increased (Patient 5 (PFIC3)): 0
Common TEAEs by preferred term: INR increased (Patient 5 (PFIC3)): 0
Common TEAEs by preferred term: Total bilirubin increased (Patient 5 (PFIC3)): 0
Common TEAEs by preferred term: Vitamin D deficiency (Patient 5 (PFIC3)): 2
Mild TEAEs (Patient 5 (PFIC3)): 3
Moderate TEAEs (Patient 5 (PFIC3)): 0
Serious TEAEs (Patient 5 (PFIC3)): 0
Severe TEAEs (Patient 5 (PFIC3)): 0
TEAEs (Patient 5 (PFIC3)): 3
TEAEs leading to discontinuation (Patient 5 (PFIC3)): 0
Common TEAEs by preferred term: ALT increased (Patient 6 (PFIC6)): 0
Common TEAEs by preferred term: INR increased (Patient 6 (PFIC6)): 0
Common TEAEs by preferred term: Total bilirubin increased (Patient 6 (PFIC6)): 0
Common TEAEs by preferred term: Vitamin D deficiency (Patient 6 (PFIC6)): 0
Mild TEAEs (Patient 6 (PFIC6)): 1
Moderate TEAEs (Patient 6 (PFIC6)): 0
Serious TEAEs (Patient 6 (PFIC6)): 0
Severe TEAEs (Patient 6 (PFIC6)): 0
TEAEs (Patient 6 (PFIC6)): 1
TEAEs leading to discontinuation (Patient 6 (PFIC6)): 0
% of days needing help falling asleep, change from baseline to weeks 34-36 [2]: −21^a %
% of days needing soothing, change from baseline to weeks 34-36 [2]: −36^a %
% of days sleeping with caregiver, change from baseline to weeks 34-36 [2]: 0^a %
% of days with bleeding associated with scratching, change from baseline to weeks 34-36 [2]: 0^a %
